Measurements: patent US5079257A, “Indoloquinone compounds” (priority 1986, dated 1992)
Values after ≈ are worked out from the molar mass of the structure shown. Like-named read-outs stand apart in the source and are kept apart here.

Key:
Assay type in all cases: cell-based
L1210 cells = test: L1210 activity (bioliquid assay), cytotoxicity; conditions: for IC50: Mus musculus, read-out: ID-50 L1210; for ID-50 L1210: 2880 min
Text: The indoloquinones II (formula II) have been tested in respect of their cytotoxic activity against L1210 cells and R-1 cells (Rhabdomyosarcoma Cells) in a bioliquid assay at the department of oncology of the Free University of Amsterdam (Table I). In addition to this seven compounds (E.O. 1, E.O. 2, E.O. 4, E.O. 7, E.O. 9, E.O. 16 and E.O. 17) have been tested on L1210 activity in a clonogenic assay at TNO, Rijswijk. Further, the lowest active doses of the compounds E.O. 1, E.O. 2, E.O. 4 and E.O. 9 have been determined at TNO Rijswijk, according to the method described by Lamberts et al. [Oncology, 40, 301 (1983)]. (Table II). Eight indoloquinones (E.O. 1, E.O. 2, E.O. 4, E.O. 4A, E.O. 8, E.O. 9, E.O. 33 and E.O. 35) have been tested in a panel of five human tumour lines (TNO Rijswijk; Table III). From the latter group three indoloquinones (E.O. 1, E.O. 4 and E.O. 9) have been selected for a cytotoxicity study, involving five slowly growing human tumour lines (University of Freiburg; Table IV).
For this purpose, L1210 cells were grown, as suspension, in Falcon multi-wells (growth area: 9.6 cm^2) using RPMI supplemented with 15% FCS and 2-mercapto-ethanol (60 μmol) as medium. In this medium, the cells were continuously incubated with the compound to be tested at 37° C. in an atmosphere of 5% CO2 in humidified air for 48 hours. Thereupon they were counted on a Sysmex microcell counter (CC110).
(§1) The in vitro L1210 and R-1 activities of the indoloquinones (formula III), were also determined in the bioliquid assays as described above.

[1] = test system: R-1 cells (Rhabdomyosarcoma Cells); test: R-1 activity (bioliquid assay), cytotoxicity; conditions: for IC50: Rhabdomyosarcoma cell, read-out: ID-50 R-1
Text: The indoloquinones II (formula II) have been tested in respect of their cytotoxic activity against L1210 cells and R-1 cells (Rhabdomyosarcoma Cells) in a bioliquid assay at the department of oncology of the Free University of Amsterdam (Table I). […] (Table II). Eight indoloquinones (E.O. 1, E.O. 2, E.O. 4, E.O. 4A, E.O. 8, E.O. 9, E.O. 33 and E.O. 35) have been tested in a panel of five human tumour lines (TNO Rijswijk; Table III).
For the determination of the R-1 activity, Rhabdomyosarcoma cells were brought into Falcon multiwells (growth area: 9.6 cm^2) (~10^6 cells per dish) containing 3 ml of Dulbecco's medium supplemented with 10% Foeto Calf Serum (FCS). […] Thereupon the drug solution was removed and the cells were covered with fresh medium. After 48 hours the cells were trypsinized and counted on a Sysmex microcell counter (CC110).
as §1

IgR37 cells melanoma = test: In vitro panel of human tumour lines (TNO): IgR-37; conditions: about 72 hours; further: key: -: no inhibition of cell growth; +: total cell-kill
Protocol: (§2) Compounds E.O. 1, E.O. 2, E.O. 4, E.O. 4A, E.O. 8, E.O. 9, […], E.O. 33, and E.O. 35 were tested for their activity against five human tumour cell lines at the Radiobiological Institute TNO Rijswijk.
(§3) The new in vitro prescreen uses human tumour clones; it was set up by Dr. P. Lelieveld at TNO Rijswijk and comprises testing compounds in a bioliquid assay for their cytostatic activity against the following five human tumour lines:
(§4) After a continuous exposure to the drugs to be tested and to Adriamycin in `24 well tissue culture clusters, type 3524 (Costar)`, the remaining cells are fixed and stained. Using increasing drug concentrations the inhibiting concentration can be estimated qualitatively.
(§5) Cells: the human tumour cells are maintained in Dulbecco's medium supplemented with 10 percent foetal calf serum.
(§6) A, T and Z cell suspensions: 5·10^4 cells/ml
(§7) The cells were grafted into 16 mm wells for 48 hours (0.5 ml cell suspension per well was used).
(§8) Drugs: the compound to be tested was dissolved in appropriate concentrations in a mixture of Hepes-buffered Hanks' balanced salt solution and ethanol. The drug solutions (0.05 ml) were added to the different wells. The final ethanol concentration in each well was less than one percent.
(§9) The cells were continuously incubated with the compound under test at 37° in an atmosphere of 10 percent CO2 in humidified air for about 72 hours.
(§10) Determination of the inhibiting dose: the cells were fixed and stained with a solution of crystal violet in methanol/formaldehyde.

MCF7 breast cancer cells = test: In vitro panel of human tumour lines (TNO): MCF-7; conditions: about 72 hours; further: key: -: no inhibition of cell growth; +: total cell-kill
Protocol: as §2, §3, §4, §5
(§11) M and W cell suspensions: 10^5 cells/ml.
as §7, §8, §9, §10

[2] = test system: T 24 cells; bladder carcinoma; test: In vitro panel of human tumour lines (TNO): T 24; conditions: 0.1 μg/ml, about 72 hours; further: key: -: no inhibition of cell growth; +: total cell-kill
Protocol: as §2, §3, §4, §5, §6, §7, §8, §9, §10

WiDr cells; colon tumour = test: In vitro panel of human tumour lines (TNO): WiDr; conditions: about 72 hours; further: key: -: no inhibition of cell growth; +: total cell-kill
Protocol: as §2, §3, §4, §5, §11, §7, §8, §9, §10

[3] = L1210, Table I, bioliquid assay, 48 hours

Row | SMILES | IC50 (L1210 cells; [3]) [µg/mL] | IC50 ([1]; Table I, bioliquid assay) [µg/mL] | ID-50 L1210 (L1210 cells; Table VI) [µg/mL] | also measured
1 | COC(=O)/C=C/c1c(C(=O)OC)c2c(n1C)C(=O)C(C)=C(OC)C2=O [E.O. 32, Methyl 1,6-dimethyl-5-methoxy-3-methoxycarbonyl-2-[1H-indole-4,7-dione]acrylate] |  |  |  | IC50 (L1210 cells; L1210, 48 h, Table IA, para-indoloquinone diesters): 3.5 µg/mL (≈ 10.1 µM); IC50 ([1]; Table IA, para-indoloquinone diesters): > 10 µg/mL
2 | COC1=CC(=O)c2c(c(COC(N)=O)c(/C=C/COC(N)=O)n2C)C1=O [E.O. 3, 3-Carbamoyloxymethyl-5-methoxy-1-methyl-2-[1H-indole-4,7-dione]prop-β-en-α-yl carbamate] | 8 (≈ 22 µM) | > 10 |  | 
3 | COC1=C(C)C(=O)c2c(c(CO)c(/C=C/CO)n2C)C1=O [E.O. 18, 1,6-Dimethyl-5-hydroxymethyl-5-methoxy-2-[1H-indole-4,7-dione]prop-β-en-α-ol] | 2.4 (≈ 8.24 µM) | 2.2 (≈ 7.55 µM) |  | 
4 | CCC1(O)CC2CN(CCc3c([nH]c4ccccc34)C(C(=O)OC)(c3cc4c(cc3OC)N(C)C3C(O)(C(=O)OC)C(OC(C)=O)C5(CC)C=CCN6CCC43C65)C2)C1 (stereo not shown) [Vinblast., reference compound] |  |  |  | in vitro activity score, IgR-37 (IgR37 cells melanoma; 0.01 μg/ml): +; in vitro activity score, IgR-37 (IgR37 cells melanoma; 0.1 μg/ml): +; in vitro activity score, MCF-7 (MCF7 breast cancer cells; 1.0 μg/ml): +; in vitro activity score, MCF-7 (MCF7 breast cancer cells; 10 μg/ml): +; in vitro activity score, T 24 [2]: +; in vitro activity score, WiDr (WiDr cells; colon tumour; 0.01 μg/ml): +; in vitro activity score, WiDr (WiDr cells; colon tumour; 0.1 μg/ml): +; in vitro activity score, WiDr (WiDr cells; colon tumour; 1.0 μg/ml): +; in vitro activity score, WiDr (WiDr cells; colon tumour; 10 μg/ml): +
5 | Cn1c(/C=C/CO)c(CO)c2c1C(=O)C=C(NCCc1ccccn1)C2=O [E.O. 51, 3-Hydroxymethyl-1-methyl-5-[2-pyridylethyl-1-amino]-2-[1H-indole-4,7-dione]prop-β-en-α-ol] | > 10 | 4.5 (≈ 12.2 µM) | > 10 | 
6 | COC1=CC(=O)c2c(c(CO)c(/C=C/COC(C)=O)n2C)C1=O [E.O. 1A, 3-Hydroxymethyl-5-methoxy-1-methyl-2-[1H-indole-4,7-dione]prop-β-en-α-yl acetate] | 2.8 | 3.2 |  | 
7 | CC(=O)OC/C=C/c1c(COC(C)=O)c2c(n1C)C(=O)C=C(NCCN(C)C)C2=O [E.O. 47, 3-Acetoxymethyl-5-[2-(N,N-dimethylamino)ethyl-1-amino]-1-methyl-2-[1H-indole-4,7-dione]prop-β-en-α-yl acetate] | > 10 | 4.4 | > 10 | R-1 activity [1]: rather high activities
8 | CC(=O)OCc1c2c(n(C)c1/C=C/CO)C(=O)C=C(NCCN(C)C)C2=O [E.O. 48, 3-Acetoxymethyl-5-[2-(N,N-dimethylamino)ethyl-1-amino]-1-methyl-2-[1H-indole-4,7-dione]prop-β-en-α-ol] | > 10 | > 10 | > 10 | IC50 ([1]; Table VI): > 10 µg/mL
9 | CCCCNC(=O)OC/C=C/c1c(COC(=O)NCCCC)c2c(n1C)C(=O)C=C(OC)C2=O [E.O. 37, 3-[N-butylcarbamoyloxymethyl]-5-methoxy-1-methyl-2-[1H-indole-4,7-dione]prop-β-en-α-yl N-butylcarbamate] | > 10 | 6.5 (≈ 13.7 µM) |  | ID-50 L1210 (L1210 cells; Table VII): > 10 µg/mL
